Entries after “also recorded” stand apart in the source; their conditions may differ.
Legend:
An. gambiae females = experiment: Survival assays of An. gambiae females after compound exposure (acute 48 h and long-term); format: in vivo, Anopheles gambiae; conditions: for proportionate survival relative to controls: 1 mmol/m2, 60 minutes exposure, 48 h after exposure
Protocol: (§1) Compound Exposures. Compounds (ATQ, ACE, HYD, PYR, PER, Millipore-Sigma, St. Louis, MO, USA) to be tested were dissolved in a suitable, volatile vehicle (Table S1) at stock concentrations of 3-10 mg/ml (0.3-1% w/v). Working concentrations of each compound were created through serial dilutions. To generate a compound-coated surface, a volume of working solution containing a known quantity of compound was added to 1 ml excess vehicle and transferred to a 6 cm diameter glass petri dish ([…]). Treated dishes were placed on a lateral shaker and left for 4 h or overnight until evaporation of the volatile vehicle, coating the compound to the glass substrate. Control plates were treated identically using only the acetone vehicle. A translucent plastic cup was placed over the coated surface to contain mosquitoes during exposure. A flap was cut into the base of the cup to allow the introduction of mosquitoes. Plates were used for 1 d and discarded. For exposures, 15-25 mosquitoes were introduced through the cup flap using a mouth aspirator and incubated on the treated surface for 6-60 min depending on the experimental parameters. Exposure plates were agitated once during exposure to discourage resting on the untreated walls and base of the cup. After exposure, plates were transferred to a clean 17.5 cm^3 cage (Bugdorm™, Megaview Science. Co. Taiwan).
Survival Assays. To assess acute survival following exposure: 40, females were exposed (as described above) to ATQ, PYR, ACE, HYD permethrin (PER) for 1 h at a dosage of 1 mmol/m^2 for each compound. […] Immediately after exposure, each treatment group was transferred to a 500 ml paper cup and provided with glucose. At 48 h post exposure the proportion of surviving mosquitoes in each group was determined. Differences in survival between control and compound-exposed mosquitoes were detected using Chi^2 analysis. For long-term survival, ˜100 ATQ- or control-exposed females were placed in clean 17.5 cm^3 cages (Bugdorm™, Megaview Science. Co., Taiwan). Water and a 10% w/v glucose solution was provided ad libitum. Cages were checked daily for mortality, and dead mosquitos were removed and counted. Each experiment continued until all mosquitoes had died. Differences in median time-to-death between ATQ and control treatment groups were analyzed using a Log-Rank Mantell-Cox test.

P. falciparum = experiment: Plasmodium falciparum infection assay in An. gambiae females after tarsal exposure to a compound-coated surface (oocyst prevalence and intensity); format: in vivo, Plasmodium falciparum (NF54) in Anopheles gambiae; conditions: for effect on prevalence of P. falciparum relative to controls / reduction of oocyst prevalence relative to controls: 1 mmol/m2, 6 minutes exposure
Protocol: as §1
Plasmodium falciparum Infection Assays. 5-d old An. gambiae females were exposed to compounds as described above. Immediately after exposure, females were transferred to a sealed, secure infection glovebox and provided an in vitro culture P. falciparum (NF54) gametocytes (1, 2) through a custom made, glass, water-heated membrane feeder. […] At 7-9 d post infectious blood meal (pIBM), females that had blood fed were vacuum aspirated into 80% ethanol, incubated for 10 minutes at −20° C., and transferred out of the secure feeding box into PBS on ice. Midguts were dissected out in PBS and stained with 0.2% w/v mercurochrome (in ddH2O) for 17 minutes. After staining, midguts were mounted on glass microscope slides in 0.02% w/v mercurochrome, and oocyst prevalence and intensity were determined by examination at 40× air objective on an inverted compound light microscope (Olympus Corporation, Waltham, MA).
Statistical Analysis. All statistical analyses were carried out using GraphPad Prism v7.0 for MacOSX (GraphPad Software Inc., La Jolla CA, USA). For infections, differences in prevalence were analyzed by Chi^2. In experiments where both treatment groups had individuals that produced >0 oocysts, differences in median oocyst burden between groups (intensity of infection) was analyzed using a Mann-Whitney Mean Ranks test. For multiple comparisons (e.g. FIG. 3) differences in prevalence between multiple groups were determined using pair-wise Chi^2 corrected for multiple comparisons (Bonferroni). Similarly, multiple comparisons of intensity were carried out using Wilcoxon with Dunn's post hoc. To determine IC50 from dose-response data, the mean relative inhibition (ATQ exposed prevalence/Control prevalence) was calculated for each tested dose and fit with a sigmoidal curve function using non-linear regression.

[1] = tested on: susceptible An. gambiae mosquitoes; conditions: 60-minute tarsal exposure; cited from earlier work
[2] = 10 μmol/m^2, 60 minutes exposure
[3] = 1 mmol/m2, 60 minutes exposure immediately prior to infection

| SMILES | proportionate survival relative to controls (An. gambiae females) | effect on prevalence of P. falciparum relative to controls (P. falciparum) | reduction of oocyst prevalence relative to controls (P. falciparum) [%] | also measured |
| --- | --- | --- | --- | --- |
| CCCCCCCCCCCCC1=C(OC(C)=O)C(=O)c2ccccc2C1=O [ACE, acequinocyl] | 1.059 | strongly reduced prevalence | 64.3 | – |
| O=C1C(O)=C([C@H]2CC[C@H](c3ccc(Cl)cc3)CC2)C(=O)c2ccccc21 [ATQ, atovaquone] | 0.975 | – | – | effect on acute or long-term survival of An. gambiae females (An. gambiae females; ATQ- vs control-exposed females, followed until death): no effect; inhibition of intensity of infection compared to controls (P. falciparum; [2]): 87.5%; inhibition of prevalence of infection compared to controls (P. falciparum; [2]): 87.6%; oocyst intensity (P. falciparum; 100 μmol/m2, 6 min exposure): 0%; prevalence of infection (P. falciparum oocysts) (P. falciparum; 100 μmol/m2, 6 min exposure): 0%; oocyst intensity (P. falciparum; 1 mmol/m2, 6 min exposure): 0%; prevalence of infection (P. falciparum oocysts) (P. falciparum; 1 mmol/m2, 6 min exposure): 0%; oocyst intensity (P. falciparum; [3]): 0%; prevalence of infection (P. falciparum oocysts) (P. falciparum; [3]): 0%; IC50 of pre-infection exposure (surface concentration; prevalence of infection) (P. falciparum; 60 minutes tarsal exposure, interpolated from dose-response curve): 1.77 μmol/m^2 |
| CCCCCCCCCCOc1cc2c(O)c(C(=O)OCC)cnc2cc1OCC [DEC, decoquinate] | 1.084 | no detectable effect on infection; also recorded: Neither compound is capable of reducing the prevalence | – | – |
| CC1(C)CNC(=NN=C(/C=C/c2ccc(C(F)(F)F)cc2)/C=C/c2ccc(C(F)(F)F)cc2)NC1 [HYD, hydramethylnon] | 0.976 | strongly reduced prevalence | 63.9 | – |
| CCc1nc(N)nc(N)c1-c1ccc(Cl)cc1 [PYR, pyrimethamine] | 1.000 | – | – | – |
| CC1(C)C(C=C(Cl)Cl)C1C(=O)OCc1cccc(Oc2ccccc2)c1 (stereo not shown) [permethrin] | 0.055 | – | – | LC50 [1]: 63 μmol/m^2 |

Reference: patent publication US12520840B2, “Method for reducing parasite burden in a mosquito” (PRESIDENT AND FELLOWS OF HARVARD COLLEGE, priority 2018, dated 2026)
